From patent US10105357B2, “Indication of antibiotic drugs for preparation of cancer inhibition pharmaceutical composition” (LAUNX BIOMEDICAL CO., LTD., priority 2014, dated 2018)
Structures can show the parent of a compound that is named as a salt.

Columns and labels:
Assay type in all cases: cell-based, human
cancer cell lines = test: Cell viability analysis (WST-1) on cancer cell lines; conditions: drug 10 μM, 72 hours, WST-1; Table 3
[1] = system: HI650 (Lung Adenocarcinoma); test: Cell viability analysis, lung cancer HI650; conditions: Homo sapiens, NCI-H1650, 72 h, read-out: cell viability (survival rate), H1650, drug 10 μM, 72 hours, WST-1, OD450 nm
[2] = system: A549 (Lung Adenocarcinoma); test: Cell viability analysis, lung cancer A549; conditions: Homo sapiens, A549, 72 h, read-out: cell viability (survival rate), A549, drug 10 μM, 72 hours, WST-1, OD450 nm
[3] = system: AGS (Gastric Adenocarcinoma); test: Cell viability analysis, gastric cancer AGS; conditions: Homo sapiens, 72 h, read-out: cell viability (survival rate), AGS, drug 10 μM, 72 hours, WST-1, OD450 nm
[4] = system: MKN-45 (Gastric Adenocarcinoma); test: Cell viability analysis, gastric cancer MKN-45; conditions: Homo sapiens, MKN-45, 72 h, read-out: cell viability (survival rate), MKN-45, drug 10 μM, 72 hours, WST-1, OD450 nm
[5] = system: HepG2 (Hepatocellular Carcinoma); test: Cell viability analysis, hepatic cancer HepG2; conditions: Homo sapiens, HepG2, 72 h, read-out: cell viability (survival rate), HepG2, drug 10 μM, 72 hours, WST-1, OD450 nm
[6] = system: LoVo (Colorectal Adenocarcinoma); test: Cell viability analysis, colon cancer LoVo; conditions: Homo sapiens, LoVo, 72 h, read-out: cell viability (survival rate), LoVo, drug 10 μM, 72 hours, WST-1, OD450 nm
[7] = system: A375 (Amelanotic Melanoma); test: Cell viability analysis, skin cancer A375; conditions: Homo sapiens, A-375, 72 h, read-out: cell viability (survival rate), A375, drug 10 μM, 72 hours, WST-1, OD450 nm
[8] = system: HeLa (Cervix Adenocarcinoma); test: Cell viability analysis, cervical cancer HeLa; conditions: Homo sapiens, HeLa, 72 h, read-out: cell viability (survival rate), HeLa, drug 10 μM, 72 hours, WST-1, OD450 nm
[9] = system: PC3 (p53−) (Prostate Adenocarcinoma); test: Cell viability analysis, prostate cancer PC3; conditions: Homo sapiens, 72 h, read-out: cell viability (survival rate), PC3, drug 10 μM, 72 hours, WST-1, OD450 nm
[10] = system: TSGH-8301 (Urinary Bladder Carcinoma); test: Cell viability analysis, bladder cancer TSGH-8301; conditions: Homo sapiens, 72 h, read-out: cell viability (survival rate), TSGH, drug 10 μM, 72 hours, WST-1, OD450 nm
[11] = system: MCF7 (Mammary Gland, Adenocarcinoma); test: Cell viability analysis, breast cancer MCF7; conditions: Homo sapiens, MCF7, 72 h, read-out: cell viability (survival rate), MCF7, drug 10 μM, 72 hours, WST-1, OD450 nm
[12] = system: HL-60 (Acute Promyelocytic Leukemia); test: Cell viability analysis, leukemia HL-60; conditions: Homo sapiens, HL-60, 72 h, read-out: cell viability (survival rate), HL-60, drug 10 μM, 72 hours, WST-1, OD450 nm

Q: Which results are given for `Nc1ccc(S(=O)(=O)Nc2nccs2)cc1` [Sulfathiazole]?
A: inhibition effect on different cancer cell lines (cancer cell lines): significant inhibition effect; viability at 10 µM [1]: 38.8%; viability at 10 µM [2]: 47.2%; viability at 10 µM [3]: 54.6%; viability at 10 µM [4]: 30.8%; viability at 10 µM [5]: 65.7%; viability at 10 µM [6]: 78.1%; viability at 10 µM [7]: 30.8%; viability at 10 µM [8]: 47.7%; viability at 10 µM [9]: 94.9%; viability at 10 µM [10]: 54.5%; viability at 10 µM [11]: 60.1%; viability at 10 µM [12]: 96.7%

Q: Which “inhibition effect on different cancer cell lines” value (cancer cell lines) does the source give for `C=C[C@]1(C)C[C@@H](OC(=O)CSC(C)(C)CNC(=O)[C@H](N)C(C)C)[C@]2(C)[C@H](C)CC[C@]3(CCC(=O)[C@H]32)[C@@H](C)[C@@H]1O` [Valnemulin HCl] here?
A: The value was “significant inhibition effect”.

Q: And the viability at 10 µM [1]?
A: Its viability at 10 µM is 78.8%.

Q: And the viability at 10 µM [2]?
A: The viability at 10 µM was 62.2%.

Q: What about the viability at 10 µM [3] of the same compound?
A: The viability at 10 µM was 75.5%.

Q: And the viability at 10 µM [4]?
A: Its viability at 10 µM is 91.4%.

Q: What about the viability at 10 µM [5] of the same compound?
A: The viability at 10 µM was 126%.

Q: What about the viability at 10 µM [6] of the same compound?
A: Its viability at 10 µM is 73.6%.

Q: And the viability at 10 µM [7]?
A: Its viability at 10 µM is 57.1%.

Q: What about the viability at 10 µM [8] of the same compound?
A: The viability at 10 µM was 117%.

Q: What about the viability at 10 µM [9] of the same compound?
A: The viability at 10 µM was 83.4%.

Q: What about the viability at 10 µM [10] of the same compound?
A: Its viability at 10 µM is 66.9%.

Q: What about the viability at 10 µM [11] of the same compound?
A: Its viability at 10 µM is 66.7%.

Q: And the viability at 10 µM [12]?
A: The viability at 10 µM was 93.3%.

Q: What does the source list for `COc1cc(Cc2cnc(N)nc2N)cc(OC)c1OC` [Trimethoprim]?
A: inhibition effect on different cancer cell lines (cancer cell lines): significant inhibition effect; viability at 10 µM [1]: 108%; viability at 10 µM [2]: 125%; viability at 10 µM [3]: 97.7%; viability at 10 µM [4]: 73.6%; viability at 10 µM [5]: 102%; viability at 10 µM [6]: 98.7%; viability at 10 µM [7]: 83.6%; viability at 10 µM [8]: 89%; viability at 10 µM [9]: 151%; viability at 10 µM [10]: 92.4%; viability at 10 µM [11]: 104%; viability at 10 µM [12]: 96.8%

Q: Which results are given for `CCOC(=O)n1ccn(C)c1=S` [Carbimazole]?
A: inhibition effect on different cancer cell lines (cancer cell lines): significant inhibition effect; viability at 10 µM [1]: 80.9%; viability at 10 µM [2]: 73.9%; viability at 10 µM [3]: 114%; viability at 10 µM [4]: 131%; viability at 10 µM [5]: 97.2%; viability at 10 µM [6]: 75%; viability at 10 µM [7]: 65.1%; viability at 10 µM [8]: 90.3%; viability at 10 µM [9]: 95.6%; viability at 10 µM [10]: 117%; viability at 10 µM [11]: 102%; viability at 10 µM [12]: 80.1%

Q: `C[C@@H]1C/C=C/C=C/C=C/C=C/[C@H](O[C@@H]2O[C@H](C)[C@@H](O)[C@H](N)[C@@H]2O)C[C@@H]2O[C@](O)(C[C@@H](O)C[C@H]3O[C@@H]3/C=C/C(=O)O1)C[C@H](O)[C@H]2C(=O)O` [Natamycin (Pimaricin), Natamycin] was tested. Which “inhibition effect on different cancer cell lines” value (cancer cell lines) did it give?
A: Its value is “significant inhibition effect”.

Q: And the viability at 10 µM [1]?
A: The viability at 10 µM was 57%.

Q: And the viability at 10 µM [2]?
A: The viability at 10 µM was 62.6%.

Q: And the viability at 10 µM [3]?
A: Its viability at 10 µM is 40.9%.

Q: What about the viability at 10 µM [4] of the same compound?
A: The viability at 10 µM was 67.1%.

Q: What about the viability at 10 µM [5] of the same compound?
A: Its viability at 10 µM is 95.3%.

Q: And the viability at 10 µM [6]?
A: The viability at 10 µM was 84.8%.

Q: And the viability at 10 µM [7]?
A: The viability at 10 µM was 82.1%.

Q: And the viability at 10 µM [8]?
A: Its viability at 10 µM is 93.5%.

Q: What about the viability at 10 µM [9] of the same compound?
A: Its viability at 10 µM is 70%.

Q: What about the viability at 10 µM [10] of the same compound?
A: The viability at 10 µM was 84.9%.

Q: What about the viability at 10 µM [11] of the same compound?
A: The viability at 10 µM was 83.2%.

Q: What about the viability at 10 µM [12] of the same compound?
A: Its viability at 10 µM is 107%.
